# Test results published in BindingDB's records for doi:10.1021/acschembio.5b00291 (Ujf-Embl-Cnrs, 2015).
# What was measured:
# Experiment in all cases: Isothermal Titration Calorimetry (ITC)
# Details in all cases: pH 8; 25 °C
# Leucine--tRNA ligase = target: T1, Leucine--tRNA ligase (Candida albicans (strain WO-1), UniProt C4YL05)
# T1 sequence (C4YL05 whole entry): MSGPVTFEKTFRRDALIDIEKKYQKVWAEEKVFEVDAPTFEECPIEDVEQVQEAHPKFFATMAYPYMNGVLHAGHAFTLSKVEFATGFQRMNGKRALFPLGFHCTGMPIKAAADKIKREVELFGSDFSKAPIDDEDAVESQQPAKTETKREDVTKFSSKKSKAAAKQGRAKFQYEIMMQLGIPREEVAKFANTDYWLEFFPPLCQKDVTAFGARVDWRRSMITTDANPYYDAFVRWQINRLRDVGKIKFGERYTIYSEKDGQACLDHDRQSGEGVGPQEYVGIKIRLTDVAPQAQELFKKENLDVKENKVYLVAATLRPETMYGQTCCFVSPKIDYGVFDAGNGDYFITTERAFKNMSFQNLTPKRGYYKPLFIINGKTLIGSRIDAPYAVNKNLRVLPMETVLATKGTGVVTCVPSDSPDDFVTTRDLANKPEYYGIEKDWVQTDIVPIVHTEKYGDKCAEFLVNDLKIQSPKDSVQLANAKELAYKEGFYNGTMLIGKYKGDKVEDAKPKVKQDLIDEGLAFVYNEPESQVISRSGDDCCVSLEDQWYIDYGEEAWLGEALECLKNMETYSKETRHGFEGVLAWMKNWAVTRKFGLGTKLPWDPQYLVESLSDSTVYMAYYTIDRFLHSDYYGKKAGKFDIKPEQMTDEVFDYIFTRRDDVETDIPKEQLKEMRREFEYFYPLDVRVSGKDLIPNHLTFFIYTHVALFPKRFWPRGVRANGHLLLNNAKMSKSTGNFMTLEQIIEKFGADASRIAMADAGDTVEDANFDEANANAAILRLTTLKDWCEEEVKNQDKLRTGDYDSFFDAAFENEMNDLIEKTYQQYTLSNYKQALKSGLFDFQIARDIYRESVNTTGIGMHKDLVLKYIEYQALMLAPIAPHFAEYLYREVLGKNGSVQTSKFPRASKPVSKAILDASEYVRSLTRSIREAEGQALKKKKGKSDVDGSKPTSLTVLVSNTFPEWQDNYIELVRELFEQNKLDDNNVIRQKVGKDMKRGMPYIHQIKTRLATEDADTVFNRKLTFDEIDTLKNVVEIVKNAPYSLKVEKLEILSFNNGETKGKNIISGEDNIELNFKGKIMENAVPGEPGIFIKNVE
# Method: (§1) ITC was performed using LeuRS CP1 domain wild-type, K510E mutant, or K510A mutant against AN2690-AMP at 25 °C by an ITC200 system (MicroCal, GE Healthcare). Wildtype protein and mutants were dialyzed against the titration buffer (50 mM HEPES-KOH, 30 mM KCl and 30 mM MgCl2, pH 8.0). Compound AN2690 and AMP were also prepared in the same buffer. A 60 μM protein solution was in the presence of 10 mM AMP in the calorimetric cell and titrated using 26 stepwise injections of 1.5 μL each with the compound AN2690 plus AMP. AN2690 solutions were placed in the syringe at 0.7 to 3 mM (depending on the expected affinity) along with 10 mM AMP. The heat generated after each ligand injection was measured base on the integral of the calorimetric signal. The resultant binding isotherms were analyzed by a nonlinear least-squares fit of the experimental data to a single site model using Microcal Origin 7.0 software. Experiments were duplicated and variability estimated to be 5% in the binding
# [1] = target: Leucine--tRNA ligase [A132I,E138V,K510A,I952T] (Candida albicans (strain WO-1), UniProt A0A1D8PS12, A132I/E138V/I952T/K510A)
# Sequence of Leucine--tRNA ligase [A132I,E138V,K510A,I952T] (A0A1D8PS12 whole entry A132I/E138V/K510A/I952T): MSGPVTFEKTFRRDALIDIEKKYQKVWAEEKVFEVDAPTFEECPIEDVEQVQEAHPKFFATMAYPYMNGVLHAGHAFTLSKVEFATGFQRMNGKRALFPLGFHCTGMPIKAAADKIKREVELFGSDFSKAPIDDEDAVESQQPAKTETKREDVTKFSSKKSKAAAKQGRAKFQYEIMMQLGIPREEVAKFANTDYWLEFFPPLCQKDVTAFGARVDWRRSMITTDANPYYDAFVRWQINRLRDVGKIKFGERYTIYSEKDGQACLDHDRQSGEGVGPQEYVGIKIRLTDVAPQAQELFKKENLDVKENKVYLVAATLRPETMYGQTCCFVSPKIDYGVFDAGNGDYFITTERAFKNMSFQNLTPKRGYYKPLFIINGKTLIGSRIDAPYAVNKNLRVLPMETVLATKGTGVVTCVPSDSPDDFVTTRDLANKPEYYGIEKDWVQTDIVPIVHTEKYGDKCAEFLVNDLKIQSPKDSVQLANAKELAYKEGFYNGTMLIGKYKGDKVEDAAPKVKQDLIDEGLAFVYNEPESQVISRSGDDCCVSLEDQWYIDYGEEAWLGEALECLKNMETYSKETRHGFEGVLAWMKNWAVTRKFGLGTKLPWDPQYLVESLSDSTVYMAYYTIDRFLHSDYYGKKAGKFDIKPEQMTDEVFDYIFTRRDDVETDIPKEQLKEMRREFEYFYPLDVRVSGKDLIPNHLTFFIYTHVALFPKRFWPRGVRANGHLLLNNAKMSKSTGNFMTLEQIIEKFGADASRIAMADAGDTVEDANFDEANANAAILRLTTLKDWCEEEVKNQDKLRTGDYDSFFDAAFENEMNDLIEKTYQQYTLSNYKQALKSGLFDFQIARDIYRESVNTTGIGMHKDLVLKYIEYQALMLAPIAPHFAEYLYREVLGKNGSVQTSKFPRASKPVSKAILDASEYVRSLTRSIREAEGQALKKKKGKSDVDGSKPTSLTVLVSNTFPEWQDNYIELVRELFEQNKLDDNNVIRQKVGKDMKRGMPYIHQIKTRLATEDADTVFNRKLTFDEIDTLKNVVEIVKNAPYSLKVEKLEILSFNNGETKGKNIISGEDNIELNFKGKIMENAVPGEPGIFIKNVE
# Method: as §1
# [2] = target: Leucine--tRNA ligase [A132I,E138V,K510E,I952T] (Candida albicans (strain WO-1), UniProt A0A1D8PS12, A132I/E138V/I952T/K510E)
# Sequence of Leucine--tRNA ligase [A132I,E138V,K510E,I952T] (A0A1D8PS12 whole entry A132I/E138V/K510E/I952T): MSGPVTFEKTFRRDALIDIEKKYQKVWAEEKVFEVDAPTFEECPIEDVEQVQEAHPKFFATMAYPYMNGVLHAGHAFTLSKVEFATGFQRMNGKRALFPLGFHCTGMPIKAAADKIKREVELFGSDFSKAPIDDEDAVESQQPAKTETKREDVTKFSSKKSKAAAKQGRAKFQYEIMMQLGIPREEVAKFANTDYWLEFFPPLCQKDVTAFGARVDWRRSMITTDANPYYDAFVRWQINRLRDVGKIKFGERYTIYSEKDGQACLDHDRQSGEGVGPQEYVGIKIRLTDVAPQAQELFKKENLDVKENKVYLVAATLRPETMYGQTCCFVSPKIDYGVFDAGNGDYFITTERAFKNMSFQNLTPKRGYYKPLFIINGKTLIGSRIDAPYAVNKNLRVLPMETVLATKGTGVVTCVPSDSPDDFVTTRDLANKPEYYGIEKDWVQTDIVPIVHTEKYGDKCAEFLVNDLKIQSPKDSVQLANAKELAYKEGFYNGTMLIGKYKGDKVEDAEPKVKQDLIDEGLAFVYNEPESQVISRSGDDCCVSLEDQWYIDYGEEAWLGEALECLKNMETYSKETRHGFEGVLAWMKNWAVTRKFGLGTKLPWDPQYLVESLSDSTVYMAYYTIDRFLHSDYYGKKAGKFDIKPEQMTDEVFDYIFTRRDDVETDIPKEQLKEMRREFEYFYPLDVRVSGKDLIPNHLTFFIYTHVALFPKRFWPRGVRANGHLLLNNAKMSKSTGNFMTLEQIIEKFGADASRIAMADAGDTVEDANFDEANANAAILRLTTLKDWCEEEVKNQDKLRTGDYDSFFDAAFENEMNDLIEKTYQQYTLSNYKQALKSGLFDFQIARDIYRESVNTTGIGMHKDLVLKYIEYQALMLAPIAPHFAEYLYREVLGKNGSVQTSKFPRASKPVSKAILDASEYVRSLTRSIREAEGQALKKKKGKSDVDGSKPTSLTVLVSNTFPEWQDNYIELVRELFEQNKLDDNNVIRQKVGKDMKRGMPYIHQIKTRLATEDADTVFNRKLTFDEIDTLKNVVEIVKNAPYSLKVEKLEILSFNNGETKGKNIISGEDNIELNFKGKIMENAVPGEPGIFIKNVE
# Method: as §1
smiles,measurement,setting,value
CC[C@H]1O[C@@H](n2cnc3c(N)ncnc32)[C@H]2O[B-]3(OCc4cc(F)ccc43)OC12 (stereo partly drawn) [AN2690-AMP],Kd,Leucine--tRNA ligase,0.7 µM
same,Kd,[1],46 µM
same,Kd,[2],21 µM
